Three compounds from patent US11634417B2 (Array BioPharma Inc., priority 2019, dated 2023) can be followed below.

In assay [1] the test system is ERK1/2 (Thr202/Tyr204) phosphorylation in KYSE520 cells. As to the kind of experiment: Cellular Phospho-p44/42 MAPK (Erk1/2) (Thr202/Tyr204) assay, In-Cell Western. It is filed as cell-based. The settings on record: Homo sapiens, KYSE-520; KYSE520 cells, 1 hour incubation, pERK signal normalized to GAPDH; single assay or mean of multiple assays; read-out: Biological Example 2 IC50. In outline: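 KYSE520 cells were treated 1 h with a 10-point 1:3 series (20 μM-1 nM, 0.5% DMSO), then fixed and stained for pERK1/2 (Thr202/Tyr204) and GAPDH by In-Cell Western. pERK signal was normalized to GAPDH per well; IC50 from 4-parameter fit.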

The target of another assay is T1, full-length SHP2 (Homo sapiens, UniProt Q06124).
T1 construct: 1 nM full-length SHP2 (His6-tagged SHP2(2-527), recombinantly expressed in E. coli and purified in-house); His6; made in house; host or cells: E. coli
T1 sequence (Q06124 2-527): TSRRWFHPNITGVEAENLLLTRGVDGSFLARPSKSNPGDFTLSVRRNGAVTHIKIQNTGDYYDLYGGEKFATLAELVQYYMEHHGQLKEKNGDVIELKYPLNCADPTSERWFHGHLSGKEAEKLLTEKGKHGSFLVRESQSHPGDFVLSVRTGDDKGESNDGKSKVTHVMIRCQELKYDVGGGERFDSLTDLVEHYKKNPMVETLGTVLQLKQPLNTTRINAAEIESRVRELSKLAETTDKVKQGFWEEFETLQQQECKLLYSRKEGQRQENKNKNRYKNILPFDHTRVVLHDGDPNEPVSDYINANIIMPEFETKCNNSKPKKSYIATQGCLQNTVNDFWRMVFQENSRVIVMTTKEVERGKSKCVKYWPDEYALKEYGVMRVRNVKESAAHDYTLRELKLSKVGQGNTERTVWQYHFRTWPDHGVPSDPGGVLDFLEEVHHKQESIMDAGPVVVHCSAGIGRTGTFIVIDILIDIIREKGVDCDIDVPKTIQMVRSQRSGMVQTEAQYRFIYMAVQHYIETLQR
Put plainly: SHP2 enzymatic assay (fluorescence intensity kinetic assay, DiFMUP hydrolysis). The assay is classed as biochemical. The settings on record: 1 nM His6-tagged SHP2(2-527), 1 μM activating peptide, 50 μM DiFMUP; single assay or mean of multiple assays; read-out: Biological Example 1 IC50.

pIC50: −log10 of the molar value.

What is called pIC50 is the IC50 on a negative log10 scale, so that one unit is a factor of ten.

Turning to `Nc1nccc(Sc2cnc(N3CCC4(CC3)Cc3c(Cl)cccc3[C@@H]4N)nn2)c1Cl` [Example 82, (R)-1′-(6-((2-amino-3-chloropyridin-4-yl)thio)-1,2,4-triazin-3-yl)-4-chloro-1,3-dihydrospiro[indene-2,4′-piperidin]-1-amine], the negative-log IC50 (pIC50) is 6.27 in assay [1] and 6.69 at full-length SHP2.
On the same counts, the results for `N[C@@H]1c2ccccc2CC12CCN(c1ncc(Sc3ccnc(NCCO)c3Cl)nn1)CC2` [Example 83, (S)-2-((4-((3-(1-amino-1,3-dihydrospiro[indene-2,4′-piperidin]-1′-yl)-1,2,4-triazin-6-yl)thio)-3-chloropyridin-2-yl)amino)ethan-1-ol] are 8.52 and 7.34.
On to `COc1ccc2c(c1)[C@@H](N)C1(CCN(c3ncc(Sc4ccnc(N)c4Cl)nn3)CC1)C2` [Example 84, (S)-1′-(6-((2-amino-3-chloropyridin-4-yl)thio)-1,2,4-triazin-3-yl)-6-methoxy-1,3-dihydrospiro[indene-2,4′-piperidin]-1-amine], for which the pIC50 is 8.70 in assay [1] and 7.62 at full-length SHP2.
